The text below walks through data of patent US11046699B2, “Pyrazolo-pyrimidin-amino-cycloalkyl compounds and their therapeutic uses” (RAPT THERAPEUTICS, INC., priority 2018, dated 2021).

In this assay the target is GCN2 (Homo sapiens, UniProt Q9P2K8). Description: GCN2 enzymatic endpoint assay: phosphorylation of GFP-eIF2α measured by TR-FRET (Lanthascreen). It counts as biochemical. Particulars: tested as described in Example 77; compound and/or hydrochloride, dihydrochloride or trifluoroacetic acid salt; read-out: IC 50 Activity. An outline of the steps: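 Phosphorylated eIF2α read by Lanthascreen TR-FRET (acceptor 520 nm over donor 495 nm) after EDTA stop. The reaction ran 90 min at room temperature on 80 nM GFP-eIF2α with 2 μM ATP.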
In general terms: In TR-FRET formats the signal depends on donor and acceptor labels being close together.

Sequence of GCN2 (Q9P2K8 whole entry): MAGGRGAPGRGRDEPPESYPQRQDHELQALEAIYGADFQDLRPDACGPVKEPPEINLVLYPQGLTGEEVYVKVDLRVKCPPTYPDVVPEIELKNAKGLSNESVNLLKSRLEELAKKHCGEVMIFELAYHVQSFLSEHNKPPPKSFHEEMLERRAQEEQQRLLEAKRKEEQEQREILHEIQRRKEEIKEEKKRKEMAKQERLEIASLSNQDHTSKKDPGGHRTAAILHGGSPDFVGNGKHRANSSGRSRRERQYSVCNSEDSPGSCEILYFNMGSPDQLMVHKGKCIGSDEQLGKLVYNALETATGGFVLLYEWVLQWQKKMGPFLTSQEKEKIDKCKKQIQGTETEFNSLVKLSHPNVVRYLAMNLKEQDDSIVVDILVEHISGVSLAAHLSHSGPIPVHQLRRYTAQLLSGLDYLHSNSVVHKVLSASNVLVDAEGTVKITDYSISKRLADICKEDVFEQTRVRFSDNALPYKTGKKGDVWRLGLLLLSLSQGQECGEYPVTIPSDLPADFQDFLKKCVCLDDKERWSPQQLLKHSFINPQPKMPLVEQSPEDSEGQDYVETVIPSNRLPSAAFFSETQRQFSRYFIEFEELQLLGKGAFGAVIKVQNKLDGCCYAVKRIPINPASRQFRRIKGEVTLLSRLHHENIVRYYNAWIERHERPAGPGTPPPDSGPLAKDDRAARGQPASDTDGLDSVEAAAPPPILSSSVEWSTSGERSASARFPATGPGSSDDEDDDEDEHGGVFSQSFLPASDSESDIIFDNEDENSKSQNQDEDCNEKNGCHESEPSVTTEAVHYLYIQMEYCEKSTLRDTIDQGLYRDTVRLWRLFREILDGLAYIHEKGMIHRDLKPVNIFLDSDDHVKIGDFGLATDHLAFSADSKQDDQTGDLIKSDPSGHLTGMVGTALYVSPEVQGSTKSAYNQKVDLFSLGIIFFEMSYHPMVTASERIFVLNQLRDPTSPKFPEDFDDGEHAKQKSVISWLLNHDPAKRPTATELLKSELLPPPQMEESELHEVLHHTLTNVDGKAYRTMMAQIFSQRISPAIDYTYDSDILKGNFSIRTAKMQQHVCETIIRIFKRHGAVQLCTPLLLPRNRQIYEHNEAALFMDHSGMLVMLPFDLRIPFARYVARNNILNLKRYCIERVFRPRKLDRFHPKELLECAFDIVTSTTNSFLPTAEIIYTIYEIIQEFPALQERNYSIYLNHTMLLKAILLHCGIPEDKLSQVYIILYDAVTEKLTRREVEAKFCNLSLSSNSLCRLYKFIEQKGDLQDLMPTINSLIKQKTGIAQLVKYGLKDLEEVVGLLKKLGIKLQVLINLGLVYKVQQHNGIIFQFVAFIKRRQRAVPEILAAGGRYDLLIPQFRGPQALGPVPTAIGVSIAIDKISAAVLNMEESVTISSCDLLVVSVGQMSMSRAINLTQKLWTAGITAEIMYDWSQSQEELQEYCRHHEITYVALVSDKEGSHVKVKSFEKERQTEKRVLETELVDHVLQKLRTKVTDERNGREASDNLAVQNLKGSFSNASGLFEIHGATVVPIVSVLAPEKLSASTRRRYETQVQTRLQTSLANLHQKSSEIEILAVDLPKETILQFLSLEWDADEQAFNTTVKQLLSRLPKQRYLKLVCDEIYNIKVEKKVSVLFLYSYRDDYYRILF

As to `CC(C)NC(=O)[C@@H]1CC[C@@H](Nc2ncc3c(Br)nn(-c4cc(C#N)c5ncccc5c4)c3n2)C1` [(1R,3R)-3-((3-bromo-1-(8-cyanoquinolin-6-yl)-1H-pyrazolo[3,4-d]pyrimidin-6-yl)amino)-N-isopropylcyclopentane-1-carboxamide], the IC50 was 25 to 200 nM.
With `CNC(=O)[C@@H]1CC[C@@H](Nc2ncc3c(Br)nn(-c4cc(C#N)c5ncccc5c4)c3n2)C1` [(1R,3R)-3-((3-bromo-1-(8-cyanoquinolin-6-yl)-1H-pyrazolo[3,4-d]pyrimidin-6-yl)amino)-N-methylcyclopentane-1-carboxamide], the IC50 is less than 25 nM.
The figure for `CNC(=O)[C@@H]1CC[C@@H](Nc2ncc3c(Br)nn(-c4cc(F)c5nc(C)ccc5c4)c3n2)C1` [(1R,3R)-3-((3-bromo-1-(8-fluoro-2-methyl-quinolin-6-yl)-1H-pyrazolo[3,4-d]pyrimidin-6-yl)amino)-N-methylcyclopentane-1-carboxamide] is 25 to 200 nM.
The figure for `CNC(=O)[C@]1(C)CC[C@@H](Nc2ncc3c(Br)nn(-c4cc(F)c5ncccc5c4)c3n2)C1` [(1R,3R)-3-((3-bromo-1-(8-fluoroquinolin-6-yl)-1H-pyrazolo[3,4-d]pyrimidin-6-yl)amino)-N,1-dimethylcyclopentane-1-carboxamide] is 25 to 200 nM; for `CN(C)C(=O)[C@@H]1CC[C@@H](Nc2ncc3c(Br)nn(-c4cc(F)c5ncccc5c4)c3n2)C1` [(1R,3R)-3-((3-bromo-1-(8-fluoroquinolin-6-yl)-1H-pyrazolo[3,4-d]pyrimidin-6-yl)amino)-N,N-dimethylcyclopentane-1-carboxamide] it is 25 to 200 nM.
On to `O=C(Nc1cnn(C2CC2)c1)[C@@H]1CC[C@@H](Nc2ncc3c(Br)nn(-c4cc(F)c5ncccc5c4)c3n2)C1` [(1R,3R)-3-((3-bromo-1-(8-fluoroquinolin-6-yl)-1H-pyrazolo[3,4-d]pyrimidin-6-yl)amino)-N-(1-cyclopropyl-1H-pyrazol-4-yl)cyclopentane-1-carboxamide], for which the IC50 was 200 to 500 nM.
Regarding `O=C(NCCN1CCNC1=O)[C@@H]1CC[C@@H](Nc2ncc3c(Br)nn(-c4cc(F)c5ncccc5c4)c3n2)C1` [(1R,3R)-3-((3-bromo-1-(8-fluoroquinolin-6-yl)-1H-pyrazolo[3,4-d]pyrimidin-6-yl)amino)-N-(2-(2-oxoimidazolidin-1-yl)ethyl)cyclo-pentane-1-carboxamide], the IC50 was in the range of 25 to 200 nM.
The figure for `CN=S(C)(=O)CCNC(=O)[C@@H]1CC[C@@H](Nc2ncc3c(Br)nn(-c4cc(F)c5ncccc5c4)c3n2)C1` (stereo partly drawn) [(1R,3R)-3-((3-bromo-1-(8-fluoroquinolin-6-yl)-1H-pyrazolo[3,4-d]pyrimidin-6-yl)amino)-N-(2-(N,S-dimethylsulfonimidoyl)ethyl)cyclopentane-1-carboxamide] is less than 25 nM; for `CS(=O)(=O)CCNC(=O)[C@@H]1CC[C@@H](Nc2ncc3c(Br)nn(-c4cc(F)c5ncccc5c4)c3n2)C1` [(1R,3R)-3-((3-bromo-1-(8-fluoroquinolin-6-yl)-1H-pyrazolo[3,4-d]pyrimidin-6-yl)amino)-N-(2-(methylsulfonyl)ethyl)cyclo-pentane-1-carboxamide] it is 200 to 500 nM; for `O=C(NCCO)[C@@H]1CC[C@@H](Nc2ncc3c(Br)nn(-c4cc(F)c5ncccc5c4)c3n2)C1` [(1R,3R)-3-((3-bromo-1-(8-fluoroquinolin-6-yl)-1H-pyrazolo[3,4-d]pyrimidin-6-yl)amino)-N-(2-hydroxyethyl)cyclopentane-1-carboxamide] it is 25 to 200 nM.
The figure for `COCCNC(=O)[C@@H]1CC[C@@H](Nc2ncc3c(Br)nn(-c4cc(F)c5ncccc5c4)c3n2)C1` [(1R,3R)-3-((3-bromo-1-(8-fluoroquinolin-6-yl)-1H-pyrazolo[3,4-d]pyrimidin-6-yl)amino)-N-(2-methoxyethyl)cyclopentane-1-carboxamide] is 25 to 200 nM.
Consider `CC1(CNC(=O)[C@@H]2CC[C@@H](Nc3ncc4c(Br)nn(-c5cc(F)c6ncccc6c5)c4n3)C2)COC1` [(1R,3R)-3-((3-bromo-1-(8-fluoroquinolin-6-yl)-1H-pyrazolo[3,4-d]pyrimidin-6-yl)amino)-N-((3-methyloxetan-3-yl)methyl)cyclopentane-1-carboxamide], for which the IC50 was in the range of 25 to 200 nM.
On to `O=C(N[C@@H]1CCNC[C@H]1F)[C@@H]1CC[C@@H](Nc2ncc3c(Br)nn(-c4cc(F)c5ncccc5c4)c3n2)C1` [(1R,3R)-3-((3-bromo-1-(8-fluoroquinolin-6-yl)-1H-pyrazolo[3,4-d]pyrimidin-6-yl)amino)-N-((3R,4R)-3-fluoropiperidin-4-yl)cyclo-pentane-1-carboxamide], for which the IC50 is 25 to 200 nM.
Take `O=C(N[C@@H]1CNC[C@H]1F)[C@@H]1CC[C@@H](Nc2ncc3c(Br)nn(-c4cc(F)c5ncccc5c4)c3n2)C1` [(1R,3R)-3-((3-bromo-1-(8-fluoroquinolin-6-yl)-1H-pyrazolo[3,4-d]pyrimidin-6-yl)amino)-N-((3R,4R)-4-fluoropyrrolidin-3-yl)cyclo-pentane-1-carboxamide]: the IC50 is 25 to 200 nM.
For `O=C(N[C@@H]1CCNC[C@@H]1F)[C@@H]1CC[C@@H](Nc2ncc3c(Br)nn(-c4cc(F)c5ncccc5c4)c3n2)C1` [(1R,3R)-3-((3-bromo-1-(8-fluoroquinolin-6-yl)-1H-pyrazolo[3,4-d]pyrimidin-6-yl)amino)-N-((3S,4R)-3-fluoropiperidin-4-yl)cyclo-pentane-1-carboxamide], the IC50 is less than 25 nM.
In the case of `O=C(N[C@@H]1CCOC1)[C@@H]1CC[C@@H](Nc2ncc3c(Br)nn(-c4cc(F)c5ncccc5c4)c3n2)C1` [(1R,3R)-3-((3-bromo-1-(8-fluoroquinolin-6-yl)-1H-pyrazolo[3,4-d]pyrimidin-6-yl)amino)-N-((R)-tetrahydrofuran-3-yl)cyclopentane-1-carboxamide] it was less than 25 nM; in that of `COCCNC(=O)[C@@H]1CC[C@@H](Nc2ncc3c(Br)nn(-c4ccc5nccn5c4)c3n2)C1` [(1R,3R)-3-((3-bromo-1-(imidazo[1,2-a]pyridin-6-yl)-1H-pyrazolo[3,4-d]pyrimidin-6-yl)amino)-N-(2-methoxyethyl)cyclopentane-1-carboxamide], 500 to 1000 nM; in that of `COCCNC(=O)[C@@H]1CC[C@@H](Nc2ncc3c(Br)nn(-c4ccc5ccncc5c4)c3n2)C1` [(1R,3R)-3-((3-bromo-1-(isoquinolin-7-yl)-1H-pyrazolo[3,4-d]pyrimidin-6-yl)amino)-N-(2-methoxyethyl)cyclopentane-1-carboxamide], 25 to 200 nM.
The figure for `O=C(O)[C@@H]1CCC[C@@H](Nc2ncc3c(Br)nn(-c4ccc5ncccc5c4)c3n2)C1` [(1R,3R)-3-((3-bromo-1-(quinolin-6-yl)-1H-pyrazolo[3,4-d]pyrimidin-6-yl)amino) cyclohexane-1-carboxylic acid] is 500 to 1000 nM.
For `CN(C)S(=O)(=O)[C@@H]1CC[C@@H](Nc2ncc3c(Br)nn(-c4ccc5ncccc5c4)c3n2)C1` [(1R,3R)-3-((3-bromo-1-(quinolin-6-yl)-1H-pyrazolo[3,4-d]pyrimidin-6-yl)amino)-N,N-dimethylcyclopentane-1-sulfonamide], the IC50 was in the range of 25 to 200 nM.
The figure for `COCC(C)(C)NC(=O)[C@@H]1CC[C@@H](Nc2ncc3c(Br)nn(-c4ccc5ncccc5c4)c3n2)C1` [(1R,3R)-3-((3-bromo-1-(quinolin-6-yl)-1H-pyrazolo[3,4-d]pyrimidin-6-yl)amino)-N-(1-methoxy-2-methylpropan-2-yl)cyclopentane-1-carboxamide] is 200 to 500 nM; for `CN(C)CCNC(=O)[C@@H]1CC[C@@H](Nc2ncc3c(Br)nn(-c4ccc5ncccc5c4)c3n2)C1` [(1R,3R)-3-((3-bromo-1-(quinolin-6-yl)-1H-pyrazolo[3,4-d]pyrimidin-6-yl)amino)-N-(2-(dimethylamino)ethyl)cyclopentane-1-carboxamide] it is 25 to 200 nM; for `CC(C)NC(=O)CN(C)C(=O)[C@@H]1CC[C@@H](Nc2ncc3c(Br)nn(-c4ccc5ncccc5c4)c3n2)C1` [(1R,3R)-3-((3-bromo-1-(quinolin-6-yl)-1H-pyrazolo[3,4-d]pyrimidin-6-yl)amino)-N-(2-(isopropylamino)-2-oxoethyl)-N-methylcyclo-pentane-1-carboxamide] it is 25 to 200 nM.
The figure for `CS(=O)(=O)CCNC(=O)[C@@H]1CC[C@@H](Nc2ncc3c(Br)nn(-c4ccc5ncccc5c4)c3n2)C1` [(1R,3R)-3-((3-bromo-1-(quinolin-6-yl)-1H-pyrazolo[3,4-d]pyrimidin-6-yl)amino)-N-(2-(methylsulfonyl)ethyl)cyclopentane-1-carboxamide] is 200 to 500 nM; for `CC(CNC(=O)[C@@H]1CC[C@@H](Nc2ncc3c(Br)nn(-c4ccc5ncccc5c4)c3n2)C1)N1CCCC1` (stereo partly drawn) [(1R,3R)-3-((3-bromo-1-(quinolin-6-yl)-1H-pyrazolo[3,4-d]pyrimidin-6-yl)amino)-N-(2-(pyrrolidin-1-yl)propyl)cyclopentane-1-carboxamide] it is 25 to 200 nM.
As to `O=C(NCCOC(F)(F)F)[C@@H]1CC[C@@H](Nc2ncc3c(Br)nn(-c4ccc5ncccc5c4)c3n2)C1` [(1R,3R)-3-((3-bromo-1-(quinolin-6-yl)-1H-pyrazolo[3,4-d]pyrimidin-6-yl)amino)-N-(2-(trifluoromethoxy)ethyl)cyclopentane-1-carboxamide], the IC50 is 200 to 500 nM.
In the case of `O=C(NCCO)[C@@H]1CC[C@@H](Nc2ncc3c(Br)nn(-c4ccc5ncccc5c4)c3n2)C1` [(1R,3R)-3-((3-bromo-1-(quinolin-6-yl)-1H-pyrazolo[3,4-d]pyrimidin-6-yl)amino)-N-(2-hydroxyethyl)cyclopentane-1-carboxamide], the IC50 lay in the range of 25 to 200 nM.
For `CC(C)OCCNC(=O)[C@@H]1CC[C@@H](Nc2ncc3c(Br)nn(-c4ccc5ncccc5c4)c3n2)C1` [(1R,3R)-3-((3-bromo-1-(quinolin-6-yl)-1H-pyrazolo[3,4-d]pyrimidin-6-yl)amino)-N-(2-isopropoxyethyl)cyclopentane-1-carboxamide], the IC50 fell in the range of 200 to 500 nM.
